Data reported in patent publication US8496952B2, “Antimicrobial compositions comprising silver chloride and benzoisothiazoline” (Clariant Finance (BVI) Limited, priority 2007, dated 2013).

Legend:
[1] = tested on: Staphylococcus aureus DSM 799, Pseudomonas aeruginosa DSM 1128, E-Coli DSM 682, Enterobacter aerogenes NCIMB 10102; test: Kill-kinetic measurement according to the Clariant method, Ag salt/BIT (Example 1); assay type: cell-based; conditions: summary of Table 1
Procedure: (kill-kinetic measurement according to the Clariant method) of the composition Ag/BIT in comparison to the individual biocides AgCl, AgNO3, composition 1 and composition 5
(§1) • 900 ml of phosphate buffer pH 7.0: • 600 ml of H2O dest. +117 ml of (b)+183 ml of (a)
(§2) The bacteria are cultivated on a caso agar.
(§3) Description of the kill-kinetic measurement according to the Clariant method After the bacteria have spent 24 hours on the culture medium (caso agar), 10 ml of the 0.1 M phosphate buffer are added thereto and mixed for 20 seconds using a vortex mixer; 9 ml of the 0.1 M buffer solution are added to 1 ml of this solution; in turn, 1 ml of this solution are taken and 9 ml of 0.1 M phosphate buffer are added. The resulting solution is the inoculum with which the test series is carried out.
The concentration data given for the above samples refer in each case to elemental silver and pure BIT (i.e. not in salt form). Thus, for example in sample 4, AgNO3 and BIT were mixed together such that the mixture comprised 26.7 ppm of Ag, calculated as element, and 53.3 ppm of BIT, calculated as pure substance.
The germ count was determined in each case at the start (0 h), after 0.5 h, 1 h; 2 h; 3 h; 5 h; 7 h and 24 h in accordance with the TVC method European Pharmacopoeia 2.6.12.

[2] = tested on: Staphylococcus aureus DSM 799, Pseudomonas aeruginosa DSM 1128, E-Coli DSM 682, Enterobacter aerogenes NCIMB 10102; test: Kill-kinetic measurement according to the Clariant method, supported silver/BIT (Example 2); assay type: cell-based; conditions: summary of Table 2
Procedure: (Kill-kinetic measurement according to the Clariant method) of silver-BIT mixtures in comparison to the individual biocides silver and BIT
as §1, §2
as §3, with “After” for “Description of the kill-kinetic measurement according to the Clariant method After”
The germ count was determined in each case at the start (0 h), after 0.5 h, 1 h, 2 h; 3 h; 5 h; 7 h and 24 h in accordance with the TVC method European Pharmacopoeia 2.6.12.

[3] = Color stability of Ag/BIT compared with AgCl, AgNO3, JMAC; assay type: physicochemical

Row | Compound | antimicrobial effect / efficiency (in words) [1] | antimicrobial effect / efficiency (in words) [2] | Appearance after ([3]; 5 min) | Appearance after ([3]; 30 min) | Appearance after ([3]; 1 h) | Appearance after ([3]; 2 h) | Appearance after ([3]; 6 h) | Appearance after ([3]; 24 h) | Appearance after ([3]; immediately)
1 | AgCl [Sample 9] | moderate | – | – | – | – | – | – | – | –
2 | silver ions | – | moderate | – | – | – | – | – | – | –
3 | O=[N+]([O-])[O-].[Ag+] [AgNO3 solution, AgNO3] | – | – | dark gray | dark gray | dark gray | dark gray | dark gray | dark gray | gray
4 | O=c1[nH]sc2ccccc12 [Benzoisothiazoline, 1,2-benzoisothiazolin-3-one] | – | only develops its antimicrobial effect after many hours | – | – | – | – | – | – | –
5 | [Cl][Ag] [AgCl] | – | – | gray | dark gray | dark gray | dark gray | dark gray | dark gray | white
6 | AgNO3 [Sample 8] | moderate | – | – | – | – | – | – | – | –
